The conditions of data set [1]: cited from earlier work.
In another data set the test system is hCMEC/D3 cells. In words: Jurkat cell migration across hCMEC/D3 transwell in vitro BBB. It counts as cell-based, human. As to conditions: 24 hours. On the procedure:
hCMEC/D3 cells were seeded onto Transwell and allowed to grow to confluencey. 2×10^6 Jurkat cells were added to the upper chamber with or without NECA (general adenosine receptor [AR] agonist), CCPA (A1 AR agonist), CGS 21860 (A2A AR agonist), or DMSO vehicle. After 24 hours, migrated cells in the lower chamber were counted. Values are relative to the number of cells that migrate through non-[…]3 seeded transwells.

Results on 1 compound are retold here after patent US20130224110A1, “USE OF ADENOSINE RECEPTOR SIGNALING TO MODULATE PERMEABILITY OF BLOOD-BRAIN BARRIER” (CORNELL UNIVERSITY, priority 2010, published 2013).

With `CCNC(=O)[C@H]1O[C@@H](n2cnc3c(N)ncnc32)[C@H](O)[C@@H]1O` [NECA, 5′-N-ethylcarboxamido adenosine], in data set [1], the half-life is on record as approximately 5 h. The “lymphocyte (Jurkat) migration across the in vitro BBB” value in the data set on hCMEC/D3 cells is recorded as “induced some migration”.

One may read the half-life as the time needed for the level to fall by half in the phase considered.
